BindingDB's records for doi:10.7270/Q2GM89G6 (n/a, 1995)
pIC50: −log10 of the molar value.

molecular target: Protein kinase C gamma type (Rattus norvegicus, UniProt P63319); experiment: Inhibition of [3H]phorbol-12,13-dibutyrate (PDBu) binding to rat brain protein kinase C gamma regulatory domain

Row | Structure (SMILES) | pIC50
1 | CC(C)[C@H]1C(=O)N[C@H](CO)Cc2c[nH]c3cccc(c23)N1C | 5.56
2 | Cc1ccc2[nH]cc3c2c1N(C)[C@@H](C(C)C)C(=O)N[C@H](CO)C3 | < 4.00
3 | CC(C)[C@H]1C(=O)N[C@H](CO)Cc2c[nH]c3ccc4c(c23)N1[C@H](C)C4 | 5.90
4 | Cc1cc2ccc3[nH]cc4c3c2n1[C@@H](C(C)C)C(=O)N[C@H](CO)C4 | 5.00
5 | CC(C)[C@H]1C(=O)N[C@H](CO)Cc2c[nH]c3ccc4c(c23)N1[C@@H](C)C4 | 4.62
